Measured values reported in ChEMBL document CHEMBL1933019, “Cell-based and in-silico studies on the high intrinsic activity of two boron-containing salbutamol derivatives at the human β₂-adrenoceptor” (Bioorg Med Chem, 2012).

How the values were obtained:
[1] = target: T1, Beta-2 adrenergic receptor (Homo sapiens, UniProt P07550); assay: Agonist activity at recombinant human beta2 adrenoceptor expressed in HEK293T cells assessed as increase in IBMX-induced cAMP accumulation using [3H]-cAMP after 30 mins by liquid scintillation counting; format: functional, cell-based, HEK-293T
T1 sequence (P07550 whole entry): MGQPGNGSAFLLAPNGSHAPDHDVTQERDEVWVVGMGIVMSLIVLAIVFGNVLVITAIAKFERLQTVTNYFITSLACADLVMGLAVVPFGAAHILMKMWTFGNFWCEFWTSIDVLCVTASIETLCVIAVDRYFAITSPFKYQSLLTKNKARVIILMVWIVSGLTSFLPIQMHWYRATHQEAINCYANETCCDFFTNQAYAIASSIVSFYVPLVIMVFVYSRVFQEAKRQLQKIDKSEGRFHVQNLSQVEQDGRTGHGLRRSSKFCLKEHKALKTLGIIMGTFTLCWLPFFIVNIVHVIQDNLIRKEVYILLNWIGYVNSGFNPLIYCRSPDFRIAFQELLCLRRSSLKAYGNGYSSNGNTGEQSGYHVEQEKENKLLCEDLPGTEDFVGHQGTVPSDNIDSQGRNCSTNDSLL

[2] = target: T1, Beta-2 adrenergic receptor; assay: Displacement of [3H]-DHA from recombinant human beta2 adrenoceptor expressed in HEK293T cells; format: cell-based, HEK-293T

EC50 [1] | Ki [2] | Structure (SMILES)
0.138 µM | 6.61 µM | CC(C)(C)NC[C@H](O)c1ccc2c(c1)C[OH+][B-](O)(c1ccccc1)O2 (some centres undefined)
0.166 µM | 3.89 µM | CC(C)(C)NC[C@H](O)c1ccc2c(c1)C[OH+][B-](O)(O)O2
